Assay results reported in ChEMBL document CHEMBL1141167, “Antitumor activity of new substituted 3-(5-imidazo[2,1-b]thiazolylmethylene)-2-indolinones and study of their effect on the cell cycle” (2005).
Several values for one entry are separate records, joined by “and”; a condition that tells them apart may be missing. Identical values can stand only once. Blank lines part the entries; values can stand above or below the compound they belong to.

Columns and labels:
[1] = tested on: Breast carcinoma cell; test: Growth inhibitory concentration dissolved in DMSO against human Breast cell line at 10E-4 M concentration; format: functional
[2] = tested on: Prostate cell; test: Total growth inhibition of human Prostate cell line at 10E-4 M concentration; format: functional
[3] = tested on: Renal cell; test: Growth inhibitory concentration dissolved in DMSO against human Renal cell line at 10E-4 M concentration; format: functional; design: unit not given here
[4] = tested on: Leukemia cell; test: Cytotoxic effect dissolved in DMSO against Leukemia cell line at 10E-4 M concentration; format: functional, Homo sapiens
[5] = tested on: NSCLC; test: Growth inhibitory concentration dissolved in DMSO against human NSCLC cell line at 10E-4 M concentration; format: functional; design: unit not given here
[6] = tested on: Colon cell; test: Growth inhibitory concentration dissolved in DMSO against human Colon cell line at 10E-4 M concentration; format: functional
[7] = tested on: Melanoma cell; test: Cytotoxic effect dissolved in DMSO against Melanoma cell line at 10E-4 M concentration; format: functional, Homo sapiens
[8] = tested on: Colon cell; test: Total growth inhibition of human Colon cell line at 10E-4 M concentration; format: functional; design: unit not given here
[9] = tested on: Prostate cell; test: Growth inhibitory concentration dissolved in DMSO against human Prostate cell line at 10E-4 M concentration; format: functional
[10] = tested on: HT-29; test: Percentage of Cells after administration of compound dissolved in DMSO (10e-7M) towards colon adenocarcinoma cell line HT-29 in G2/M Phase after 24 Hours of Treatment [control = 12.8]; format: functional, Homo sapiens
[11] = tested on: CNS cell; test: Growth inhibitory concentration dissolved in DMSO against human CNS cell line at 10E-4 M concentration; format: functional
[12] = tested on: NSCLC; test: Total growth inhibition of human NSCLC cell line at 10E-4 M concentration; format: functional
[13] = tested on: Colon cell; test: Cytotoxic effect dissolved in DMSO against Colon cell line at 10E-4 M concentration; format: functional, Homo sapiens
[14] = tested on: Ovarian carcinoma cell; test: Growth inhibitory concentration dissolved in DMSO against human Ovarian cell line at 10E-4 M concentration; format: functional
[15] = tested on: HT-29; test: Percentage of Cells after administration of compound dissolved in DMSO (10e-5 M) towards colon adenocarcinoma cell line HT-29 in G2/M Phase after 24 Hours of Treatment [control = 12.8]; format: functional, Homo sapiens
[16] = tested on: Melanoma cell; test: Total growth inhibition of human Melanoma cell line at 10E-4 M concentration; format: functional
[17] = tested on: HT-29; test: Percentage of Cells after administration of compound dissolved in DMSO (10e-8 M) towards colon adenocarcinoma cell line HT-29 in G2/M Phase after 24 Hours of Treatment [control = 12.8]; format: functional, Homo sapiens
[18] = tested on: Melanoma cell; test: Growth inhibitory concentration dissolved in DMSO against human Melanoma cell line at 10E-4 M concentration; format: functional
[19] = tested on: Leukemia cell; test: Total growth inhibition of human Leukemia cell line at 10E-4 M concentration; format: functional
[20] = tested on: NSCLC; test: Cytotoxic effect dissolved in DMSO against NSCLC cell line at 10E-4 M concentration; format: functional, Homo sapiens
[21] = tested on: HT-29; test: Percentage of Cells after administration of compound dissolved in DMSO (10e-6 M) towards colon adenocarcinoma cell line HT-29 in G2/M Phase after 24 Hours of Treatment [control = 12.8]; format: functional, Homo sapiens
[22] = tested on: Panel NCI-60 (60 carcinoma cell lines); test: Total growth inhibition of human MG-MID cell line at 10E-4 M concentration; format: functional
[23] = tested on: HT-29; test: Percentage of Cells after administration of compound dissolved in DMSO (10e-4 M) towards colon adenocarcinoma cell line HT-29 in G2/M Phase after 24 Hours of Treatment [control = 12.8]; format: functional, Homo sapiens
[24] = tested on: CNS cell; test: Cytotoxic effect dissolved in DMSO against CNS cell line at 10E-4 M concentration; format: functional, Homo sapiens
[25] = tested on: Panel NCI-60 (60 carcinoma cell lines); test: Growth inhibitory concentration dissolved in DMSO against human MG-MID cell line at 10E-4 M concentration; format: functional
[26] = tested on: Ovarian carcinoma cell; test: Total growth inhibition of human Ovarian cell line at 10E-4 M concentration; format: functional
[27] = tested on: Panel NCI-60 (60 carcinoma cell lines); test: Cytotoxic effect dissolved in DMSO against MG-MID cell line at 10E-4 M concentration; format: functional, Homo sapiens
[28] = tested on: Breast carcinoma cell; test: Total growth inhibition of human Breast cell line at 10E-4 M concentration; format: functional
[29] = tested on: Melanoma cell; test: Total growth inhibition of human Melanoma cell line at 10E-3 M concentration; format: functional
[30] = tested on: Ovarian carcinoma cell; test: Growth inhibitory concentration dissolved in DMSO against human Ovarian cell line at 10E-3 M concentration; format: functional
[31] = tested on: Ovarian carcinoma cell; test: Total growth inhibition of human Ovarian cell line at 10E-3 M concentration; format: functional
[32] = tested on: NSCLC; test: Total growth inhibition of human NSCLC cell line at 10E-3 M concentration; format: functional
[33] = tested on: Renal cell; test: Growth inhibitory concentration dissolved in DMSO against human Renal cell line at 10E-3 M concentration; format: functional
[34] = tested on: Leukemia cell; test: Growth inhibitory concentration dissolved in DMSO against human leukemia cell line at 10E-3 M concentration; format: functional
[35] = tested on: Prostate cell; test: Cytotoxic effect dissolved in DMSO against Prostate cell line at 10E-3 M concentration; format: functional, Homo sapiens
[36] = tested on: Melanoma cell; test: Growth inhibitory concentration dissolved in DMSO against human Melanoma cell line at 10E-3 M concentration; format: functional
[37] = tested on: Breast carcinoma cell; test: Growth inhibitory concentration dissolved in DMSO against human Breast cell line at 10E-3 M concentration; format: functional
[38] = tested on: Colon cell; test: Growth inhibitory concentration dissolved in DMSO against human Colon cell line at 10E-3 M concentration; format: functional
[39] = tested on: CNS cell; test: Cytotoxic effect dissolved in DMSO against CNS cell line at 10E-3 M concentration; format: functional, Homo sapiens
[40] = tested on: Panel NCI-60 (60 carcinoma cell lines); test: Cytotoxic effect dissolved in DMSO against MG-MID cell line at 10E-3 M concentration; format: functional, Homo sapiens
[41] = tested on: Renal cell; test: Total growth inhibition of human Renal cell line at 10E-3 M concentration; format: functional
[42] = tested on: CNS cell; test: Total growth inhibition of human CNS cell line at 10E-3 M concentration; format: functional
[43] = tested on: Renal cell; test: Cytotoxic effect dissolved in DMSO against Renal cell line at 10E-3 M concentration; format: functional, Homo sapiens
[44] = tested on: Prostate cell; test: Total growth inhibition of human Prostate cell line at 10E-3 M concentration; format: functional
[45] = tested on: Breast carcinoma cell; test: Cytotoxic effect dissolved in DMSO against Breast cell line at 10E-3 M concentration; format: functional, Homo sapiens
[46] = tested on: Ovarian carcinoma cell; test: Cytotoxic effect dissolved in DMSO against Ovarian cell line at 10E-3 M concentration; format: functional, Homo sapiens
[47] = tested on: Melanoma cell; test: Cytotoxic effect dissolved in DMSO against Melanoma cell line at 10E-3 M concentration; format: functional, Homo sapiens
[48] = tested on: NSCLC; test: Cytotoxic effect dissolved in DMSO against NSCLC cell line at 10E-3 M concentration; format: functional, Homo sapiens
[49] = tested on: CNS cell; test: Growth inhibitory concentration dissolved in DMSO against human CNS cell line at 10E-3 M concentration; format: functional
[50] = tested on: NSCLC; test: Growth inhibitory concentration dissolved in DMSO against human NSCLC cell line at 10E-3 M concentration; format: functional
[51] = tested on: Panel NCI-60 (60 carcinoma cell lines); test: Total growth inhibition of human MG-MID cell line at 10E-3 M concentration; format: functional
[52] = tested on: Prostate cell; test: Growth inhibitory concentration dissolved in DMSO against human Prostate cell line at 10E-3 M concentration; format: functional
[53] = tested on: Leukemia cell; test: Cytotoxic effect dissolved in DMSO against Leukemia cell line at 10E-3 M concentration; format: functional, Homo sapiens
[54] = tested on: Leukemia cell; test: Total growth inhibition of human Leukemia cell line at 10E-3 M concentration; format: functional
[55] = tested on: Breast carcinoma cell; test: Total growth inhibition of human Breast cell line at 10E-3 M concentration; format: functional
[56] = tested on: Panel NCI-60 (60 carcinoma cell lines); test: Growth inhibitory concentration dissolved in DMSO against human MG-MID cell line at 10E-3 M concentration; format: functional
[57] = tested on: Colon cell; test: Cytotoxic effect dissolved in DMSO against Colon cell line at 10E-3 M concentration; format: functional, Homo sapiens
[58] = tested on: Colon cell; test: Total growth inhibition of human Colon cell line at 10E-3 M concentration; format: functional

Compound: Cc1cn2c(/C=C3/C(=O)Nc4ccc(O)cc43)c(C)nc2s1
pGI50 (-log GI50, M) [1]: 5.56 | TGI [2]: 4.42 | GI50 [3]: 5.3 | LC50 [4]: 4.47 | GI50 [5]: 5.4 | pGI50 (negative log of molar GI50) [6]: 5.78 | LC50 [7]: 4.08 | TGI [8]: 4.35 and 4.5 | pGI50 (negative log molar GI50) [9]: 5.52 | Activity [10]: 13.6% | pGI50 (-log GI50, M) [11]: 5.41 | TGI [12]: 4.36 | LC50 [13]: 4.03 | pGI50 (negative log of GI50 in M) [14]: 5.16 | Activity [15]: 72.7% | TGI [16]: 4.5 | Activity [17]: 12.2% | pGI50 (-log molar GI50) [18]: 5.41 | TGI [19]: 5.11 | LC50 [20]: 4.02 | Activity [21]: 13.4% | TGI [22]: 4.44 | Activity [23]: 75.2% | LC50 [24]: 4.02 | GI50 [25]: 5.48 | TGI [26]: 4.09 | LC50 [27]: 4.05 | TGI [28]: 4.66

pGI50 (-log GI50, M) [1]: 4.33 | pGI50 (negative log of GI50 in M) [14]: 4.12 | pGI50 (-log molar GI50) [18]: 4.22
Compound: COc1cc2c(cc1C)NC(=O)/C2=C/c1c(C)nc2sc(C)cn12
GI50 [3]: 4.09 | GI50 [5]: 4.24 | pGI50 (negative log of molar GI50) [6]: 4.21 | pGI50 (negative log molar GI50) [9]: 4.23 | pGI50 (-log GI50, M) [11]: 4.08 | GI50 [25]: 4.22

Compound: CC[C@]1(O)C[C@H]2CN(CCc3c([nH]c4ccccc34)[C@@](C(=O)OC)(c3cc4c(cc3OC)N(C=O)[C@H]3[C@@](O)(C(=O)OC)[C@H](OC(C)=O)[C@]5(CC)C=CCN6CC[C@]43[C@@H]65)C2)C1.O=S(=O)(O)O [VINCRISTINE SULFATE]
pTGI [29]: 5.1 | pGI50 [30]: 6.5 | pTGI [31]: 4.7 | pTGI [32]: 4.8 | pGI50 [33]: 6.5 | pGI50 [34]: 7 | LC50 [35]: 3.5 | pGI50 [36]: 6.8 | pGI50 [37]: 6.5 | pGI50 [38]: 7 | LC50 [39]: 3.7 | LC50 [40]: 3.6 | pTGI [41]: 4.7 | pTGI [42]: 5.2 | LC50 [43]: 3.6 | pTGI [44]: 5.2 | LC50 [45]: 3.5 | LC50 [46]: 3.5 | LC50 [47]: 3.6 | LC50 [48]: 3.6 | pGI50 [49]: 6.9 | pGI50 [50]: 6.6 | pTGI [51]: 5 | pGI50 [52]: 6.9 | LC50 [53]: 3.2 | pTGI [54]: 4.8 | pTGI [55]: 5.1 | pGI50 [56]: 6.7 | LC50 [57]: 4.1 | pTGI [58]: 5.4
